One compound from patent US20150231109A1, “COMBINATIONS (CATECHINS AND METHOTREXATE) FOR USE IN THE TREATMENT OF MELANOMAS” (UNIVERSIDAD DE MURCIA, priority 2012, published 2015) can be followed below.

Experiment [1] concerns B16/F10 primary splenic tumors. The experiment in a line: Primary spleen tumors after intrasplenic injection of luciferase-tagged B16/F10 cells. Type of experiment: in vivo, mouse.
Experimental: C, Luciferase imaging of control and MTX/TMECG-treated mice 12 days post-tumor cell injection. Beetle luciferin (120 mg/kg of mouse) was injected intraperitoneally. The values (means±s.d.) are representative of three independent experiments. *P=0.007; **P=0.002. […] Xenograft tumors treated with DMSO (vehicle) or MTX/TMECG (1 mg/kg/day and 50 mg/kg/day, respectively) over 14-days. […] Representative images taken from two independent experiments (n=5 for each experiment). Scale bar=200 μm and is applicable to both panels. I, B16/F10 melanoma cells, expressing a luciferase reporter, were injected subcutaneously to mice. Mice were divided in two groups (n=7) and treated with vehicle (DMSO) or MTX/TMECG (1 mg/kg/day and 10 mg/kg/day, respectively) over 21-days. Then, tumors were pooled and dissociated. B16/F10 cells extracted from tumors were examined for their sensitivity to the MTX/TMECG combination (1 μM and 10 μM, respectively) using quantification of the luminescence signal (left panel). […] Scale bar refers to all panels. […] Mice were treated with vehicle, MTX (1 mg/kg/day), and/or TMECG (50 mg/kg/day). […] Scale bar refers to all panels.
A, Luciferase imaging of vehicle (control), MTX, and/or TMECG-treated mice 12 days post-tumor cell injection. Firefly luciferin (120 mg/kg of mouse) was injected intraperitoneally. The values are representative of three independent experiments. […] The number of cells was estimated by extrapolation of the experimental luciferase signal to calibration curves. A straight line with a good linear correlation coefficient (0.998) was obtained by plotting luciferase signal vs number of B16/F10-luc2 cells. Treatment of mice (n=6) started 24 hr after tumor induction (Day 1). For all experiments: *p<0.05 with respect to control mice; #p<0.05 with respect to individual MTX or TMECG treatments.
Experiment [2] concerns SK-MEL-28 cells. The experiment can be described thus: Apoptosis assay (cytoplasmic histone-associated DNA fragmentation ELISA), SK-MEL-28. Particulars: SK-MEL-28, MTX alone. Type of experiment: cell-based, human. The protocol:
FIGS. 2A-N. MTX and TMECG combination therapy induces apoptosis via dTTP depletion and DNA-damage. A, Intracellular accumulation of TMECG-QM in SK-MEL-28 treated with TMECG or MTX/TMECG for 24 h. B, Proliferation assays performed of control or MTX/TMECG-treated (10 μM/1 μM) SK-MEL-28 cells. C, Quantification of effects of MTX/TMECG treatment on SK-MEL-28 cells (*P<0.05 with respect to TMECG-treated cells). For time course assay MTX (1 μM) and TMECG (10 μM) were used. D, dNTP quantification in melanoma cells subjected to indicated treatments (*P<0.05). […] K, quantification of γH2AX foci in SK-MEL-28 cells treated with MTX (1 μM) and/or TMECG (10 μM), or X-rays. […] N, Cell cycle profile determined by flow cytometry of SK-MEL-28 cells treated with a sublethal dose of MTX/TMECG. […]
(§1) The induction of apoptosis was assessed by performing cytoplasmic histone-associated DNA fragmentation using a kit from Roche Diagnostics (Barcelona, Spain). […] The amount of nucleosomes is photometrically quantified at 405 nm by the peroxidase activity retained in the immunocomplexes. Apoptosis was defined as the specific enrichment of mono- and oligonucleosomes in the cytoplasm and was calculated by dividing the absorbance of treated samples by the absorbance of untreated samples after correcting for the number of cells. […]

Experiment [3] concerns melanoma (SK-MEL-28, G361) cell lines. The experiment can be described thus: MTX/TMECG synergy titration (apoptosis), melanoma cell lines. Particulars: apoptosis after 4 days. It counts as cell-based, human. As for the experimental part:
FIGS. 5A-D. The effects of MTX and/or TMECG on the growth of melanoma cell lines. A, Viability was determined by the MTT assay. Cells were treated with vehicle only (•), 10 μM TMECG ( ), 1 μM MTX (▴) or with a combination of 1 μM MTX+10 μM TMECG (▾). Table outlines p53, BRAF, NRAS, and PTEN status with specific amino acid substitutions. […] B, MTX/TMECG synergy test for melanoma and non-melanoma cancer cells in which drugs were combined in 6×6 matrices where the concentration of one drug was increased along each axis. The lowest concentration was 0 and the highest concentration was chosen close to the IC50 for each drug in each assayed cell line. Apoptosis was determined after 4 days of treatment. Data were obtained in triplicate in two independent experiments. […]
as §1

With `CN(Cc1cnc2nc(N)nc(N)c2n1)c1ccc(C(=O)N[C@@H](CCC(=O)O)C(=O)O)cc1` [MTX, methotrexate], the “necrotic areas in splenic tumors” value in experiment [1] (14 days treatment, MTX 1 mg/kg/day and/or TMECG 50 mg/kg/day) is listed as 4%±2%. For the same compound, in experiment [1] (MTX or TMECG alone, 12 days post-tumor cell injection), the “effect on in vivo luciferase signal” value was “around 2 fold”. The induction of apoptosis entry in experiment [2] was “did not induce apoptosis”. The “sensitivity to MTX alone, melanoma versus non-melanoma lines” value in experiment [3] is recorded as “substantially less sensitive”.
